Legend:
[1] = Absorbance measurements (UV-Vis); conditions: for Absorbance Wavelength: ACN:PBS buffer (50:50 v/v); for Abs. λabs: 25 μM
Method: Samples were individually diluted to the final concentration of 25 μM (500 μL) using 50:50 acetonitrile in phosphate buffered saline (ACN/PBS). The absorbance spectrum of each derivative (150 μL) was measured on a Thermo Scientific Genesys 150 UV-Vis spectrometer, using 50:50 ACN/PBS as a blank.

[2] = Molar absorptivity determination; format: physicochemical;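 note: molar absorptivity derived from UV-Vis absorbance spectra recorded for each derivative on a spectrometer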
Method: The absorbance spectrum of each derivative (150 μL) was measured on a Thermo Scientific Genesys 150 UV-Vis spectrometer, using 50:50 ACN/PBS as a blank.
Molar absorptivity determination. […] The absorbance spectrum of each derivative (150 μL) was measured on a Thermo Scientific Genesys 150 UV-Vis spectrometer, using 50:50 ACN/PBS as a blank.

[3] = Fluorescence lifetime measurements (TCSPC); format: physicochemical; conditions: for Fluorescence Lifetime: ACN/PBS buffer (1:1 v/v); for Lifetime: ACN/PBS buffer (50:50 v/v), excitation 340 nm
Method: Time correlated single photon counting (TCSPC) measurements of fluorescence lifetime decays for 100 μM solutions of dyes (6, 7c, 7e, 7f, and 7g) in ACN/PBS buffer (50:50 v/v) were collected with the PTI Quantamaster™ 40 using a pulsed LED with a maximum emission at 340 nm. Fluorescence emission was collected at the indicated wavelength for each dye with 20 nm slit widths. The instrument response function (IRF) was collected under identical conditions. Data analysis was performed with FluoFit software (PicoQuant GmbH; Berlin, Germany) using an exponential decay model.
Fluorescence lifetime measurements. Time correlated single photon counting (TCSPC) measurements of fluorescence lifetime decays for 100 μM solutions of dyes (3 and 5c-f) in ACN/PBS buffer (50:50 v/v) were collected with the PTI Quantamaster™ 40 using a pulsed LED with a maximum emission at 340 nm. Fluorescence emission was collected at the indicated wavelength for each dye with 20 nm slit widths. The instrument response function ([…]) was collected under identical conditions. Data analysis was performed with FluoFit software (PicoQuant GmbH; Berlin, Germany) using an exponential decay model. […] FIG. 64D Fluorescence spectra of 5i-5k. […] Fluorescence spectra were measured at their maximum absorption wavelength. FIGS. 66A-66K show representative QY acquisitions of 3 and 5a-f, 5h-k in ACN/PBS buffer (50:50). All had consistent excitation (360 nm) and spectral collection (350-800 nm) parameters. Final concentration of the probe is 500 μM. Black line indicates incident light and blue line indicates sample spectrum. […] All had consistent excitation (360 nm, slit width 10 nm) and spectral collection (350-800 nm) parameters. Final concentration of the probe is 500 µM. Black line indicates incident light and blue line indicates sample spectrum. FIG. 68: Effect of pH on absorption and emission of 5h and 5j. […] For pH screening of 5h and 5j, PBS buffer solutions were prepared, then adjusted the pH 2, 4, and 7 by adding 6 M hydrochloric acid, pH 9 and 11 by adding 5 M sodium hydroxide. Emission spectra were measured by the excitation wavelength 354 nm for 5h and 385 nm for 5j. […] Lifetime measurements with exponential fits shown at left and residuals after fitting shown at right.

[4] = Fluorescence (emission) measurements; format: physicochemical;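 note: fluorescence emission spectra recorded on a spectrofluorometer, with each compound excited at its own absorption maximum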
Method: The fluorescence spectrum of each derivative (150 μL) was measured on a Photon Technology International (PTI) QuantaMaster™ 40 fluorescence spectrometer by excitation at the maximum absorption wavelength for each compound.
The fluorescence spectrum of each derivative (150 μL) was measured on a Photon Technology International (PTJ) QuantaMaster™ 40 fluorescence spectrometer by excitation at the maximum absorption wavelength for each compound.

[5] = Fluorescent quantum yield (QY) measurements; format: physicochemical; conditions: for Fluorescence QY: ACN/PBS buffer (1:1 v/v); for Fluorescence quantum yield: in ACN
Method: For each QY measurement, the incident excitation light spectrum was collected with 1 mL of solvent. […] Using the JASCO Quantum Yield Software, the dye QY was calculated by dividing the dye fluorescence intensity by the difference in incident light intensity in the presence and absence of dye. The minimum excitation wavelength for a full excitation incident spectrum using this setup is 360 nm.
Fluorescent quantum yield (QY) measurements. For each QY measurement, the incident excitation light spectrum was collected with 1 mL of solvent. After measuring the incident light intensity, dye (3 and 5a-5k) was added to the solvent from a concentrated stock solution to a final concentration of […] and the new spectrum (fluorescence intensity and new incident light intensity) was collected. Using the JASCO Quantum Yield Software, the dye QY was calculated by dividing the dye fluorescence intensity by the difference in incident light intensity in the presence and absence of dye. The minimum excitation wavelength for a full excitation incident spectrum using this setup is 360 nm.

[6] = 25 μM in ACN/PBS buffer (1:1 v/v), pH 7.4
[7] = ACN/PBS buffer (1:1 v/v), pH 7.4
[8] = in ACN, at maximum absorption wavelength

| SMILES | Absorbance λmax ([1]; 25 μM in ACN) [nm] | Absorbance λmax [1, 6] [nm] | Absorbance Wavelength ([1]; Table S14) [nm] | Molar Absorptivity (ε) [2, 7] [M⁻¹ cm⁻¹] | Molar Absorptivity (ε) [2, 8] [M⁻¹ cm⁻¹] | Emission λmax [4, 6] [nm] | Stokes shift ([4]; ACN/PBS buffer (1:1 v/v)) [nm] | Stokes shift ([4]; in ACN) [nm] | Fluorescence QY [5] [%] | Fluorescence quantum yield [5] [%] | Fluorescence quantum yield ([5]; Table S12) [%] | Absorbance Wavelength ([1]; Table 11) [nm] | Abs. λabs ([1]; ACN only) [nm] | Abs. λabs ([1]; ACN:PBS (50:50 v/v)) [nm] | ε ([2]; ACN only) [M⁻¹ cm⁻¹] | ε ([2]; ACN:PBS (50:50 v/v)) [M⁻¹ cm⁻¹] | Stokes shift ([4]; ACN only) [nm] | Stokes shift ([4]; ACN:PBS (50:50 v/v)) [nm] | Q.Y. ([5]; ACN only) [%] | Q.Y. ([5]; ACN:PBS (50:50 v/v)) [%] | other results |
| --- | --- | --- | --- | --- | --- | --- | --- | --- | --- | --- | --- | --- | --- | --- | --- | --- | --- | --- | --- | --- | --- |
| COc1ccc(/C=C/c2c(C)c(=O)n3c(=O)c(C)c(C)n23)cc1 [Compound 7g, (E)-3-(4-methoxystyryl)-2,5,6-trimethyl-1H,7H-pyrazolo[1,2-a]pyrazole-1,7-dione] | 342 | 348 | 348 | 25659 | 34554 | 504 | 156 | 146 | 3.3 | 3.5 | 3.5 |  |  |  |  |  |  |  |  |  | Fluorescence Lifetime [3]: 1.31 ns; Lifetime ([3]; Table 4): 1.31 ± 0.004 ns; Lifetime ([3]; Table S13): 1.31 ± 0.004 ns |
| Cc1c(C)n2c(/C=C/c3ccc(F)cc3)c(C)c(=O)n2c1=O [Compound 7c, (E)-3-(4-fluorostyryl)-2,5,6-trimethyl-1H,7H-pyrazolo[1,2-a]pyrazole-1,7-dione] | 315 | 321 | 321 | 23796 | 28940 | 502 | 181 | 177 | 2.5 | 2.8 | 2.8 | 321 |  |  |  |  |  |  |  |  | Fluorescence Lifetime [3]: 1.07 ns; Lifetime ([3]; Table 4): 1.07 ± 0.003 ns; Lifetime ([3]; Table S13): 1.07 ± 0.003 ns |
| Cc1c(C)n2c(/C=C/c3nc4ccc([N+](=O)[O-])cc4s3)c(C)c(=O)n2c1=O [Compound 8a, (E)-2,3,6-trimethyl-5-(2-(6-nitrobenzo[d]thiazol-2-yl)vinyl)-1H,7H-pyrazolo[1,2-a]pyrazole-1,7-dione] |  |  |  |  |  |  |  |  |  |  |  |  | 346 | 349 | 26667 | 27587 | 229 | 99 | 0.1 | 0.06 | Em. λem ([4]; ACN:PBS (50:50 v/v), 25 μM): 448 nm |
| Cc1ccc(/C=C/c2c(C)c(=O)n3c(=O)c(C)c(C)n23)cc1 [Compound 7f, (E)-2,3,6-trimethyl-5-(4-methylstyryl)-1H,7H-pyrazolo[1,2-a]pyrazole-1,7-dione] | 325 | 332 | 332 | 21164 | 24426 | 503 | 171 | 165 | 3.0 | 3.4 | 3.4 | 332 |  |  |  |  |  |  |  |  | Fluorescence Lifetime [3]: 1.28 ns; Lifetime ([3]; Table 4): 1.28 ± 0.004 ns; Lifetime ([3]; Table S13): 1.28 ± 0.004 ns |
| Cc1c(C)n2c(/C=C/c3nc4ccccc4s3)c(C)c(=O)n2c1=O [Compound 8c, (E)-3-(2-(benzo[d]thiazol-2-yl)vinyl)-2,5,6-trimethyl-1H,7H-pyrazolo[1,2-a]pyrazole-1,7-dione] |  |  |  |  |  |  |  |  |  |  |  |  | 339 | 344 | 29974 | 29304 | 195 | 192 | 0.4 | 0.16 |  |
| Cc1c(C)n2c(/C=C/c3ccc(NC(=O)OC(C)(C)C)cc3)c(C)c(=O)n2c1=O [Compound 7i, tert-butyl (E)-(4-(2-(2,5,6-trimethyl-1,7-dioxo-1H,7H-pyrazolo[1,2-a]pyrazol-3-yl)vinyl)phenyl)carbamate] | 348 | 356 |  | 34826 | 37555 | 505 | 149 | 142 | 3.4 | 3.4 | 3.4 | 354 |  |  |  |  |  |  |  |  | maximum emission wavelength (λem) ([4]; 50:50 ACN/PBS, excitation at λabs): 583 nm |
| COc1ccc2nc(/C=C/c3c(C)c(=O)n4c(=O)c(C)c(C)n34)sc2c1 [Compound 8d, (E)-3-(2-(6-methoxybenzo[d]thiazol-2-yl)vinyl)-2,5,6-trimethyl-1H,7H-pyrazolo[1,2-a]pyrazole-1,7-dione] |  |  |  |  |  |  |  |  |  |  |  |  | 367 | 373 | 22961 | 22575 | 163 | 157 | 0.54 | 0.27 |  |
| Cc1c(C)n2c(/C=C/c3nc4ccc(O)cc4s3)c(C)c(=O)n2c1=O [Compound 8e, (E)-3-(2-(6-hydroxybenzo[d]thiazol-2-yl)vinyl)-2,5,6-trimethyl-1H,7H-pyrazolo[1,2-a]pyrazole-1,7-dione] |  |  |  |  |  |  |  |  |  |  |  |  | 369 | 375 | 21094 | 20460 | 162 | 159 | 0.52 | 0.26 |  |
| Cc1c(C)n2c(/C=C/c3nc4ccc(F)cc4s3)c(C)c(=O)n2c1=O [Compound 8b, (E)-3-(2-(6-fluorobenzo[d]thiazol-2-yl)vinyl)-2,5,6-trimethyl-1H,7H-pyrazolo[1,2-a]pyrazole-1,7-dione] |  |  |  |  |  |  |  |  |  |  |  |  | 340 | 345 | 32612 | 31088 | 192 | 185 | 0.56 | 0.21 |  |
| Cc1c(C)n2c(/C=C/c3ccc([N+](=O)[O-])cc3)c(C)c(=O)n2c1=O [Compound 7a, (E)-2,3,6-trimethyl-5-(4-nitrostyryl)-1H,7H-pyrazolo[1,2-a]pyrazole-1,7-dione] | 332 | 335 | 335 | 36955 | 37871 | 468 | 133 | 100 | 0.1 | 0.2 | 0.2 | 335 |  |  |  |  |  |  |  |  | λabs ([1]; ACN/PBS): 335 nm; Emission λmax ([4]; 25 μM in ACN): 432 nm; Emission λem ([4]; 25 μM in ACN, Table S12): 432 nm; fluorescence quantum yield (QY) ([5]; in ACN/PBS): essentially non-fluorescent |
| Cc1c(C)n2c(/C=C/c3ccc(N=[N+]=[N-])cc3)c(C)c(=O)n2c1=O [Compound 7d, (E)-3-(4-azidostyryl)-2,5,6-trimethyl-1H,7H-pyrazolo[1,2-a]pyrazole-1,7-dione] | 339 | 350 |  | 27699 | 36055 | 502 | 152 | 101 | 1.3 | 1.5 |  |  |  |  |  |  |  |  |  |  |  |

From US20240336617A1, “Substituted Bimane Compounds and Methods of Use Thereof” (THE TRUSTEES OF THE UNIVERSITY OF PENNSYLVANIA, priority 2023, published 2024)
